In PMC7036871, “Identification and Characterization of pantocin wh-1, a Novel Cyclic Polypeptide Produced by Pantoea dispersa W18” (Molecules, 2020):
Entries after “also recorded” stand apart in the source; their conditions may differ. Where a SMILES comes first, the peptide text is derived from it.

How the values were obtained:
Feces Enterococcus = assay: Antimicrobial spectrum, microporous dilution method; format: cell-based; parameters: key: -: no inhibitory activity; +: Inhibit the growth of less than 10% amount of the initial bacteria; ++: Inhibit the growth of less than 50% amount of the initial bacteria; +++: Inhibit the growth of initial bacteria completely; conditions: medium BHI
Description: (§1) In this paper, the microporous dilution method was used to detect the antibacterial spectrum of pantocin wh-1 against Gram-negative and -positive bacteria. […] The time kill studies were determined over 8 h with M. smegmatis mc^2 155 being exposed to 0.5, 1, 2, or 4 × MIC of pantocin wh-1. […] At 2 × MIC and 4 × MIC, pantocin wh-1 caused bacterial eradication was completed approximately after 4 h.
(§2) The antibacterial activity of the pantocin wh-1 was detected by the microscale optical density assay (MODA) method. Briefly, 90 μL of the dilutions of pantocin wh-1, 100 μL 2 × 7H9 medium, and 10 μL of a log phase indicator strain were co-incubated in the 96-well plate at 37 °C for 48 h. For control groups, 90 μL of the dilutions of pantocin wh-1 were replaced by an equal volume of sterile water. After incubation, the 96 well microplate was measured by a microplate reader at a 600 nm wavelength (Biotek synergyH1, Biotek, Winooski, VT, USA). The amount of pantocin wh-1 produced by P. dispersa W18 was determined using two fold dilutions. […] The results were expressed in AU/mL. The MIC was defined as the last dilution of pantocin wh-1 sufficient to prevent indicator strain growth in vitro.

M. tuberculosis H37Ra = format: cell-based, Mycobacterium tuberculosis; parameters: key: -: no inhibitory activity; +: Inhibit the growth of less than 10% amount of the initial bacteria; ++: Inhibit the growth of less than 50% amount of the initial bacteria; +++: Inhibit the growth of initial bacteria completely; conditions: M. tuberculosis Ra, medium 7H9
S. suis = assay: Antimicrobial spectrum, microporous dilution method; format: cell-based, Streptococcus suis
Description: as §1, §2

S. aureus N315 = assay: as above; format: cell-based; parameters: key: -: no inhibitory activity; +: Inhibit the growth of less than 10% amount of the initial bacteria; ++: Inhibit the growth of less than 50% amount of the initial bacteria; +++: Inhibit the growth of initial bacteria completely; conditions: S. aureus N315, medium LB
Klebsiella = assay: as above; format: cell-based
Description: as §1, §2

M. smegmatis mc^2 155 [1] = assay: Time kill study; format: cell-based, Mycobacterium smegmatis
Description: as §1
For detection of the time kill study, 100 μL of the indicator strain in exponential phase were added to tubes containing 5 mL of the modified 7H9 medium with pantocin wh-1 at 0.5, 1, 2, and 4 × MIC. No pantocin wh-1 was added in the control tube, then incubated at 37 °C for 8 h. At the end of each time period, tenfold serial dilutions were prepared with 0.5 mM phosphate buffer, and 100 μL cultures were plated in triplicate onto the 7H10 plates. For anti-tuberculosis activities in vivo, an auto-luminescent strain of M. tuberculosis H37Ra (AlRa) described by Tianyu Zhang was used to assess the efficacy of pantocin wh-1 in a mouse model. The relative light unit (RLU) count was determined to parallel CFU counts during the active phase of bacterial growth. AlRa with OD600 of 0.1 was injected into female BALB/c mice by tail vein. The day after injection (Day 0), RLU values were detected for 6 days in triplicate.

trypsin = assay: Effect of enzymes on antibacterial activity: trypsin; format: in vitro ADME
Excerpt: (§3) Furthermore, the antibacterial activity of pantocin wh-1 also retained nearly 100% of the initial activity within a broad pH range (pH 2–12).
(§4) The effect of various enzymes, pH, and temperature on pantocin wh-1 activity was detected as described by J.-M. Chobert et al. with a slight modification. Proteinase K, trypsin, catalase, lysozyme, DNAse, and RNAse were used to test the antibacterial activity of pantocinwh-1. To analyze the effect of different pH values on the antibacterial activity of pantocin wh-1, the sample of pantocin wh-1 was exposed to buffer with a pH value of 2–12 for 1 h at 25 °C. The effect of temperature on the anti-mycobacterial activity of pantocin wh-1 was determined by incubating pantocin wh-1 at 50 °C and 100 °C for 60 min, as well as at 121 °C for 15 min, and then detecting the bactericidal activity against M. smegmatis mc^2 155.

M. smegmatis mc^2 155 [2] = assay: Antibacterial activity, microscale optical density assay (MODA) / microporous dilution; format: cell-based, Mycobacterium smegmatis; parameters: key: -: no inhibitory activity; +: Inhibit the growth of less than 10% amount of the initial bacteria; ++: Inhibit the growth of less than 50% amount of the initial bacteria; +++: Inhibit the growth of initial bacteria completely; conditions: M. smegmatis mc2155, medium 7H9
Description: as §1, §2

lysozyme = assay: Effect of enzymes on antibacterial activity: lysozyme; format: in vitro ADME
Excerpt: as §3, §4

[3] = system: autoluminescent H37Ra (UAlRa); parameters: species or system BALB/c female mice; conditions: mouse, in vivo
DNase = assay: Effect of enzymes on antibacterial activity: DNase; format: in vitro ADME
Excerpt: as §3, §4

[4] = Effect of pH on antibacterial activity; format: physicochemical; conditions: for Residual activity: compared with antimicrobial activity before the treatment
Excerpt: as §3, §4

L .monocytogenes = assay: Antimicrobial spectrum, microporous dilution method; format: cell-based, Listeria monocytogenes
Description: as §1, §2

RNase = RNase (Bos taurus, UniProt P61823); assay: Effect of enzymes on antibacterial activity: RNase; format: in vitro ADME
RNase, sequence (P61823 27-150): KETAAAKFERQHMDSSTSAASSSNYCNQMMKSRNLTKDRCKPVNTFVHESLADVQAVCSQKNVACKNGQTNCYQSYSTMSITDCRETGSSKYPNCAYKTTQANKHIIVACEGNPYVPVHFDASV
Excerpt: as §3, §4

M. bovis BCG = format: cell-based; parameters: key: -: no inhibitory activity; +: Inhibit the growth of less than 10% amount of the initial bacteria; ++: Inhibit the growth of less than 50% amount of the initial bacteria; +++: Inhibit the growth of initial bacteria completely; conditions: medium 7H9
proteinase K = proteinase K (Parengyodontium album, UniProt P06873); assay: Effect of enzymes on antibacterial activity: proteinase K; format: in vitro ADME
proteinase K, sequence (P06873 106-384): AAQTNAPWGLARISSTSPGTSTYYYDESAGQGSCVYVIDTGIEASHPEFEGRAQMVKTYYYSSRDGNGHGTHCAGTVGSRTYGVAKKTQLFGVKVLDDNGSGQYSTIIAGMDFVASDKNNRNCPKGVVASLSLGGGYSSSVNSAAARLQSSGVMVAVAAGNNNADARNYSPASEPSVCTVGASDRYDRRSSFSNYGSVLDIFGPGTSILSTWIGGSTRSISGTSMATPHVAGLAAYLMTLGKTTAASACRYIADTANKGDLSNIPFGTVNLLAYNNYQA
Excerpt: as §3, §4

CSCC[C@@H]1NC(=O)[C@H](C(C)C)NC(=O)[C@H](Cc2c[nH]c3ccccc23)NC(=O)[C@H](C(C)C)NC(=O)[C@H](C)NC(=O)[C@H](CS)NC(=O)[C@H](CC(N)=O)NC(=O)[C@H](Cc2ccccc2)NC(=O)CNC(=O)[C@H](Cc2ccc(O)cc2)NC(=O)CNC(=O)[C@H](Cc2ccccc2)NC(=O)[C@H](C(C)C)NC(=O)[C@H](Cc2ccc(O)cc2)NC(=O)[C@H](CS)NC(=O)[C@H](Cc2c[nH]c3ccccc23)NC1=O [pantocin wh-1] (cyclo(AVWVMWCYVFGYGFNC))
Inhibition activity (Feces Enterococcus): - | Inhibition activity (M. tuberculosis H37Ra): +++ | activity after pepsin (pepsin): not completely inactivated | Inhibition activity (S. suis; S. suis, medium BHI): + (Inhibit the growth of less than 10% amount of the initial bacteria) | inhibitory activity (S. suis; Streptococcus suis): partial inhibitory activity | Inhibition activity (S. aureus N315): - | inhibitory activity (Klebsiella): partial inhibitory activity | decline in colony forming units (CFU) (M. smegmatis mc^2 155 [1]; 0.5 and 1 × MIC, within the first 2 h, followed by bacterial regeneration to near the initial concentration): > 3 log | time to completed bacterial eradication (M. smegmatis mc^2 155 [1]; 2 × MIC and 4 × MIC): ~4 h | inhibitory activity after trypsin (trypsin; trypsin): not completely inactivated; also recorded: partial sensitivity | Residual activity (trypsin; trypsin treatment, compared with antimicrobial activity before the treatment): 27% | Inhibition activity (M. smegmatis mc^2 155 [2]): +++ | antibacterial activity after lysozyme (lysozyme; lysozyme): insensitive | Residual activity (lysozyme; lysozyme treatment, compared with antimicrobial activity before the treatment): 100% | relative light unit (RLU) value [3]: significant decrease | therapeutic effect compared with streptomycin [3]: did not exceed that of streptomycin | antibacterial activity after DNase I (DNase; DNase I): insensitive | Residual activity (DNase; DNase treatment, compared with antimicrobial activity before the treatment): 100% | retained initial antibacterial activity ([4]; broad pH range (pH 2–12)): ~100% | Residual activity ([4]; pH2-6, buffer 1 h at 25 °C): 90% | Residual activity ([4]; pH6-8, buffer 1 h at 25 °C): 100% | Residual activity ([4]; pH8-12, buffer 1 h at 25 °C): 85% | Inhibition activity (L .monocytogenes; L .monocytogenes, medium BHI): + (Inhibit the growth of less than 10% amount of the initial bacteria) | inhibitory activity (L .monocytogenes; Listeria monocytogenes): partial inhibitory activity | antibacterial activity after RNase A (RNase; RNase A): insensitive | Residual activity (RNase; RNase treatment, compared with antimicrobial activity before the treatment): 100% | Inhibition activity (M. bovis BCG): +++ | inhibitory activity after proteinase K (proteinase K): inactivated completely
